Experimental data taken from ChEMBL document CHEMBL1128045, “Antifungal lipopeptides: Structure-activity relationships of 3-hydroxyglutamine-modified pneumocandin B0 derivatives” (Bioorg Med Chem Lett, 1995).
Values after ≈ are worked out from the molar mass of the structure shown. Numbered stars: 1 amine (or outer) side, 2 acyl side, 3 side chain; on linkers, the order of the positions; unused ones are H or OH. Bridge positions count the residues as written; N and C are the ends. Square brackets hold non-standard residues; d marks the D form. Peptide text beside a SMILES is read from it. * marks the point of attachment. Orn(4R-OH,5R-OH) = O=C([C@H](C[C@@H](O)[C@@H](O)N[*:3])N[*:1])[*:2]; hTyr(3S-OH,4S-OH) = N[C@H](C(=O)O)[C@H](O)[C@@H](O)c1ccc(O)cc1; Orn(4R-OH) = O=C([C@H](C[C@@H](O)CN[*:3])N[*:1])[*:2]; X10 = N#CCN(CC#N)CC[C@@H](O)[C@H](N[*:1])C(=O)[*:2]; X6 = C[N+](C)(C)CC[C@@H](O)[C@H](N[*:1])C(=O)[*:2]; hTyr(3R-OH) = N[C@H](C(=O)O)[C@H](O)Cc1ccc(O)cc1; X12 = CC(=O)NCC[C@@H](O)[C@H](N[*:1])C(=O)[*:2]; X11 = COC(=O)C[C@@H](O)[C@H](N[*:1])C(=O)[*:2]; X5 = NC(N)=NCC[C@@H](O)[C@H](N[*:1])C(=O)[*:2]; X3 = O=C(C[C@@H](O)[C@H](N[*:1])C(=O)[*:2])NO; X2 = O=C(O)C[C@@H](O)[C@H](N[*:1])C(=O)[*:2]; X4 = N=C(S)C[C@@H](O)[C@H](N[*:1])C(=O)[*:2]; X7 = CN(C)CC[C@@H](O)[C@H](N[*:1])C(=O)[*:2]; Gln(3R-OH) = NC(=O)C[C@@H](O)[C@H](N)C(=O)O; X13 = CNCC[C@@H](O)[C@H](N[*:1])C(=O)[*:2]; Orn(3R-OH) = NCC[C@@H](O)[C@H](N)C(=O)O; Pro(3S-OH) = O=C(O)[C@H]1NCC[C@@H]1O; Hyp = O=C(O)[C@@H]1C[C@@H](O)CN1; X1 = CCC(C)CC(C)CCCCCCCCC(=O)*

Key:
[1] = molecular target: Beta-1,3-glucan synthase (Candida albicans, UniProt O13428); assay: Tested for inhibition of Beta-1,3-glucan synthase using a crude membrane of Candida albicans (MY 1208).
Chain of Beta-1,3-glucan synthase (O13428 whole entry): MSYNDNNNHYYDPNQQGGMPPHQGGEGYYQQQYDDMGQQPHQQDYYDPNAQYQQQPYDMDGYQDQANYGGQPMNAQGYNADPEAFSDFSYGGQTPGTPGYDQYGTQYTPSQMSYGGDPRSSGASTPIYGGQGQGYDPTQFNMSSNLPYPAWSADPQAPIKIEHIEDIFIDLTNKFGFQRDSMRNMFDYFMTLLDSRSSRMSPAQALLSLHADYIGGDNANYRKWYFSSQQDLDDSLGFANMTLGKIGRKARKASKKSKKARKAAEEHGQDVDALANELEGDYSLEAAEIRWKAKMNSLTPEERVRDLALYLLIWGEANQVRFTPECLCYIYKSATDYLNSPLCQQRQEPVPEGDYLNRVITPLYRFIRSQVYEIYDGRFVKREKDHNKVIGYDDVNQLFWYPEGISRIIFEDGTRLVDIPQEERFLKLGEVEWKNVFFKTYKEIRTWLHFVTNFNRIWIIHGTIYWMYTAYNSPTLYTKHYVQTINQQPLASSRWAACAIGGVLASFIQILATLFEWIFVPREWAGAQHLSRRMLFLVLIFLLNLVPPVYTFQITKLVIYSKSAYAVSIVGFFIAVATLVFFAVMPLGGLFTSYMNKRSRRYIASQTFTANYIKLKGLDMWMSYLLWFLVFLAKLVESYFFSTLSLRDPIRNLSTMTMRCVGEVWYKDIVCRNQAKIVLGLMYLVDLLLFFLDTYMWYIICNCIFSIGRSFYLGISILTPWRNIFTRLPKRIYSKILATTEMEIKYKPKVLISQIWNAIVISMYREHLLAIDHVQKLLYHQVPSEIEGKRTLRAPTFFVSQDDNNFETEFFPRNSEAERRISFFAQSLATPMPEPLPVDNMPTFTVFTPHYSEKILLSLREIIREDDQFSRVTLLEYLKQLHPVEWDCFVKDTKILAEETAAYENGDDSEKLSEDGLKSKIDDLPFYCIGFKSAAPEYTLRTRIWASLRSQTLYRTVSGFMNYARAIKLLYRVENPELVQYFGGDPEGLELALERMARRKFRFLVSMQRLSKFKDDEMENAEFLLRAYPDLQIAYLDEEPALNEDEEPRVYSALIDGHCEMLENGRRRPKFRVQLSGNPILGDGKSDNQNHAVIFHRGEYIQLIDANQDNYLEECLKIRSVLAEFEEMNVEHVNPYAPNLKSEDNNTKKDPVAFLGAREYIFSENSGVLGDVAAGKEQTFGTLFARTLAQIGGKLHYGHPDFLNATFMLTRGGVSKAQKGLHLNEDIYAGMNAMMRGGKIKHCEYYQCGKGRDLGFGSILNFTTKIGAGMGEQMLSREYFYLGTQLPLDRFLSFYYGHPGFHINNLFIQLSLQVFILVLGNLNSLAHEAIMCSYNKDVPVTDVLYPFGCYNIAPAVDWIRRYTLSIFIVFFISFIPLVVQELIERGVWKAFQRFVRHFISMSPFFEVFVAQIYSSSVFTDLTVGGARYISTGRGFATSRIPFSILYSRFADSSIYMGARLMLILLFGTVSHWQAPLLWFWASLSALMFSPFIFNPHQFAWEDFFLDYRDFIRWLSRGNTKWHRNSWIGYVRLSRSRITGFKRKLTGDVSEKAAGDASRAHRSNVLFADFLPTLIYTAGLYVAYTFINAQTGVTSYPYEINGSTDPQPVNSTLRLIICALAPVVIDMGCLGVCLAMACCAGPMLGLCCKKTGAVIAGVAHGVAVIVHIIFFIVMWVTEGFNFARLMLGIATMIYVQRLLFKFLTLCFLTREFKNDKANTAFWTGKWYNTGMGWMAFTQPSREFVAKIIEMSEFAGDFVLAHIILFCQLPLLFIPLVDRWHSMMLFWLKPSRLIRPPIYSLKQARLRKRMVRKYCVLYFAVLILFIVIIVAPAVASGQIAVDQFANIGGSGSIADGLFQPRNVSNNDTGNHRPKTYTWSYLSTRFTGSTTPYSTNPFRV

[2] = test system: Candida parapsilosis; assay: In vitro Fungicidal activity (MFC) against Candida parapsilosis (MY 1010).; assay type: functional; conditions: Lodderomyces parapsilosis
[3] = test system: Candida albicans; assay: In vitro Fungicidal activity (MFC) against Candida albicans (MY 1055).; assay type: functional
[4] = In vivo anti-Candida activity was determined in a mouse model of disseminated candidiasis (TOKA).; assay type: functional

Row | Compound | IC50 [1] [nM] | MFC [2] [µg/mL] | MFC [3] [µg/mL] | ED99.9 [4] [mg/kg]
1 | CCC(C)CC(C)CCCCCCCCC(=O)N[C@H]1C[C@@H](O)CNC(=O)[C@@H]2[C@@H](O)CCN2C(=O)[C@H]([C@H](O)CC(N)=O)NC(=O)[C@H]([C@H](O)Cc2ccc(O)cc2)NC(=O)[C@@H]2C[C@@H](O)CN2C(=O)[C@H]([C@@H](C)O)NC1=O (stereo partly drawn) (X1-[Orn(4R-OH)]T[Hyp][hTyr(3R-OH)][Gln(3R-OH)][Pro(3S-OH)]; lactam 1-C) | 70 | 2 (≈ 1.94 µM) | 0.25 (≈ 0.242 µM) | >6
2 | CCC(C)CC(C)CCCCCCCCC(=O)N[C@H]1C[C@@H](O)CNC(=O)[C@@H]2[C@@H](O)CCN2C(=O)[C@H]([C@H](O)CC(=O)O)NC(=O)[C@H]([C@H](O)Cc2ccc(O)cc2)NC(=O)[C@@H]2C[C@@H](O)CN2C(=O)[C@H]([C@@H](C)O)NC1=O (stereo partly drawn) (X1-[Orn(4R-OH)]T[Hyp][hTyr(3R-OH)][X2][Pro(3S-OH)]; lactam 1-C) | 400 | 8 (≈ 7.74 µM) | 0.25 (≈ 0.242 µM) | >6
3 | CCC(C)CC(C)CCCCCCCCC(=O)N[C@H]1C[C@@H](O)CNC(=O)[C@@H]2[C@@H](O)CCN2C(=O)[C@H]([C@H](O)CC(=O)NO)NC(=O)[C@H]([C@H](O)Cc2ccc(O)cc2)NC(=O)[C@@H]2C[C@@H](O)CN2C(=O)[C@H]([C@@H](C)O)NC1=O (stereo partly drawn) (X1-[Orn(4R-OH)]T[Hyp][hTyr(3R-OH)][X3][Pro(3S-OH)]; lactam 1-C) | 80 | 4 (≈ 3.81 µM) | 0.25 (≈ 0.238 µM) | 6
4 | CCC(C)CC(C)CCCCCCCCC(=O)N[C@H]1C[C@@H](O)CNC(=O)[C@@H]2[C@@H](O)CCN2C(=O)[C@H]([C@H](O)CC(=N)S)NC(=O)[C@H]([C@H](O)Cc2ccc(O)cc2)NC(=O)[C@@H]2C[C@@H](O)CN2C(=O)[C@H]([C@@H](C)O)NC1=O (stereo partly drawn) (X1-[Orn(4R-OH)]T[Hyp][hTyr(3R-OH)][X4][Pro(3S-OH)]; lactam 1-C) | 120 | 4 (≈ 3.81 µM) | 0.25 (≈ 0.238 µM) | >6
5 | CCC(C)CC(C)CCCCCCCCC(=O)N[C@H]1C[C@@H](O)CNC(=O)[C@@H]2[C@@H](O)CCN2C(=O)[C@H]([C@H](O)CC(=O)OC)NC(=O)[C@H]([C@H](O)Cc2ccc(O)cc2)NC(=O)[C@@H]2C[C@@H](O)CN2C(=O)[C@H]([C@@H](C)O)NC1=O (stereo partly drawn) (X1-[Orn(4R-OH)]T[Hyp][hTyr(3R-OH)][X11][Pro(3S-OH)]; lactam 1-C) | 180 | 4 (≈ 3.82 µM) | 0.5 (≈ 0.477 µM) | >6
6 | CCC(C)CC(C)CCCCCCCCC(=O)N[C@H]1C[C@@H](O)[C@@H](O)NC(=O)[C@@H]2[C@@H](O)CCN2C(=O)[C@H]([C@H](O)CC(N)=O)NC(=O)[C@H]([C@H](O)[C@@H](O)c2ccc(O)cc2)NC(=O)[C@@H]2C[C@@H](O)CN2C(=O)[C@H]([C@@H](C)O)NC1=O (stereo partly drawn) (X1-[Orn(4R-OH,5R-OH)]T[Hyp][hTyr(3S-OH,4S-OH)][Gln(3R-OH)][Pro(3S-OH)]; lactam 1-C) | – | 1 (≈ 0.939 µM) | 0.25 (≈ 0.235 µM) | 6
7 | CCC(C)CC(C)CCCCCCCCC(=O)N[C@H]1C[C@@H](O)[C@@H](O)NC(=O)[C@@H]2[C@@H](O)CCN2C(=O)[C@H]([C@H](O)CCN)NC(=O)[C@H]([C@H](O)[C@@H](O)c2ccc(O)cc2)NC(=O)[C@@H]2C[C@@H](O)CN2C(=O)[C@H]([C@@H](C)O)NC1=O (stereo partly drawn) (X1-[Orn(4R-OH,5R-OH)]T[Hyp][hTyr(3S-OH,4S-OH)][Orn(3R-OH)][Pro(3S-OH)]; lactam 1-C) | 10 | 0.5 (≈ 0.476 µM) | < 0.06 | 0.375
8 | CCC(C)CC(C)CCCCCCCCC(=O)N[C@H]1C[C@@H](O)[C@@H](O)NC(=O)[C@@H]2[C@@H](O)CCN2C(=O)[C@H]([C@H](O)CCN=C(N)N)NC(=O)[C@H]([C@H](O)[C@@H](O)c2ccc(O)cc2)NC(=O)[C@@H]2C[C@@H](O)CN2C(=O)[C@H]([C@@H](C)O)NC1=O (stereo partly drawn) (X1-[Orn(4R-OH,5R-OH)]T[Hyp][hTyr(3S-OH,4S-OH)][X5][Pro(3S-OH)]; lactam 1-C) | 7 | 0.5 (≈ 0.457 µM) | < 0.06 | 1.5
9 | CCC(C)CC(C)CCCCCCCCC(=O)N[C@H]1C[C@@H](O)[C@@H](O)NC(=O)[C@@H]2[C@@H](O)CCN2C(=O)[C@H]([C@H](O)CC[N+](C)(C)C)NC(=O)[C@H]([C@H](O)[C@@H](O)c2ccc(O)cc2)NC(=O)[C@@H]2C[C@@H](O)CN2C(=O)[C@H]([C@@H](C)O)NC1=O (stereo partly drawn) (X1-[Orn(4R-OH,5R-OH)]T[Hyp][hTyr(3S-OH,4S-OH)][X6][Pro(3S-OH)]; lactam 1-C) | 9 | 0.5 | 0.125 | 0.375
10 | CCC(C)CC(C)CCCCCCCCC(=O)N[C@H]1C[C@@H](O)[C@@H](O)NC(=O)[C@@H]2[C@@H](O)CCN2C(=O)[C@H]([C@H](O)CCN(C)C)NC(=O)[C@H]([C@H](O)[C@@H](O)c2ccc(O)cc2)NC(=O)[C@@H]2C[C@@H](O)CN2C(=O)[C@H]([C@@H](C)O)NC1=O (stereo partly drawn) (X1-[Orn(4R-OH,5R-OH)]T[Hyp][hTyr(3S-OH,4S-OH)][X7][Pro(3S-OH)]; lactam 1-C) | 5 | 2 (≈ 1.85 µM) | 1 (≈ 0.927 µM) | 1.5
11 | CCC(C)CC(C)CCCCCCCCC(=O)N[C@H]1C[C@@H](O)[C@@H](O)NC(=O)[C@@H]2[C@@H](O)CCN2C(=O)[C@H]([C@H](O)CCN(CC#N)CC#N)NC(=O)[C@H]([C@H](O)[C@@H](O)c2ccc(O)cc2)NC(=O)[C@@H]2C[C@@H](O)CN2C(=O)[C@H]([C@@H](C)O)NC1=O (stereo partly drawn) (X1-[Orn(4R-OH,5R-OH)]T[Hyp][hTyr(3S-OH,4S-OH)][X10][Pro(3S-OH)]; lactam 1-C) | > 200 | 8 (≈ 7.08 µM) | 4 (≈ 3.54 µM) | >1.5
12 | CCC(C)CC(C)CCCCCCCCC(=O)N[C@H]1C[C@@H](O)[C@@H](O)NC(=O)[C@@H]2[C@@H](O)CCN2C(=O)[C@H]([C@H](O)CCNC(C)=O)NC(=O)[C@H]([C@H](O)[C@@H](O)c2ccc(O)cc2)NC(=O)[C@@H]2C[C@@H](O)CN2C(=O)[C@H]([C@@H](C)O)NC1=O (stereo partly drawn) (X1-[Orn(4R-OH,5R-OH)]T[Hyp][hTyr(3S-OH,4S-OH)][X12][Pro(3S-OH)]; lactam 1-C) | 300 | 8 (≈ 7.32 µM) | 4 (≈ 3.66 µM) | 12
13 | CCC(C)CC(C)CCCCCCCCC(=O)N[C@H]1C[C@@H](O)[C@@H](O)NC(=O)[C@@H]2[C@@H](O)CCN2C(=O)[C@H]([C@H](O)CCNC)NC(=O)[C@H]([C@H](O)[C@@H](O)c2ccc(O)cc2)NC(=O)[C@@H]2C[C@@H](O)CN2C(=O)[C@H]([C@@H](C)O)NC1=O (stereo partly drawn) (X1-[Orn(4R-OH,5R-OH)]T[Hyp][hTyr(3S-OH,4S-OH)][X13][Pro(3S-OH)]; lactam 1-C) | 7 | 2 (≈ 1.88 µM) | 2 (≈ 1.88 µM) | 0.375
